Laboratory results from the METLIN SMRT retention time set (Domingo-Almenara et al. 2019).

Experiment: gradient 5% acetonitrile 3 min, to 50% in 2 min, to 85% in 15 min, held 3 min, 100 µL/min
Details: column: Zorbax Extend-C18 2.1 x 50 mm; eluents: water / acetonitrile, 0.1% formic acid
Method in brief: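 The mobile phases were water and acetonitrile, each with 0.1% formic acid, pumped at 100 μL/min through a Zorbax Extend-C18 column (2.1 × 50 mm, 1.8 μm). Pure standards were injected as mixtures of ~100 molecules and detected by a quadrupole time-of-flight mass spectrometer in positive and negative ionization mode. Retention time came from computationally picked adduct peaks, each inspected by hand.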

| RP-LC retention time [s] | SMILES |
| --- | --- |
| 744 | COc1ccccc1NS(=O)(=O)c1cc(N)ccc1N1CCCCC1 |
| 660 | CCc1ccccc1NC(=O)C1CCN(c2nnc3ccccn23)CC1 |
| 929 | Brc1ccc(-c2nc(-c3ccn4cnnc4c3)no2)cc1 |
| 922 | O=C(Cc1csc2nc(-c3ccccc3)cn12)Nc1ccc(C(F)(F)F)cc1 |
| 774 | Cn1nc(CC(=O)Nc2ccccc2Br)c2ccccc2c1=O |
| 716 | CC(C)NC(=O)C1CCCN(c2nc3ncn(CC(=O)Nc4ccc(F)c(F)c4)c(=O)c3s2)C1 (stereo not drawn) |
| 862 | CCC(C)NC(=O)C1CCN(S(C)(=O)=O)c2cc(Cl)ccc2O1 (stereo not drawn) |
| 653 | O=S(=O)(c1ccc(F)cc1)N1CCN(c2cnn3cnnc3c2)CC1 |
| 862 | O=C(CCn1nnc2cc(-c3noc(COc4ccccc4)n3)ccc21)N1CCCC1 |
| 554 | O=C(Cn1c(=O)n(Cc2cccnc2)c(=O)c2ncccc21)c1ccc2c(c1)OCCO2 |
| 607 | CCOc1cccc2c1OC1(C)CC2NC(=O)N1c1cccc(C(=O)NCc2ccccn2)c1 (stereo not drawn) |
| 1210 | CSc1ccc(CNC(=O)C2CCCN(c3nc4c(s3)c(C)nn4-c3ccc(C)cc3)C2)cc1 (stereo not drawn) |
| 1050 | Cc1nc(C2(C)CCN(S(=O)(=O)c3ccc(C(C)C)cc3)CC2)no1 |
| 1160 | Cc1cc(C)cc(Nc2nc(C)cc3nn(CC(=O)N(C)c4ccccc4)c(=O)n23)c1 |
| 914 | COc1ccc(-c2nnc(SCC(=O)N3CCC(C)CC3)o2)cc1 |
| 1020 | CSc1cccc(NC(=O)Cn2cc(-c3ccccc3)c3ncn(C4CC4)c(=O)c32)c1 |
| 956 | O=C(c1nnc(-c2ccc(S(=O)(=O)N3CCCCC3)cc2)o1)N1CCCCC1 |
| 700 | CC1(C)CC(=O)c2cn(-c3ccccc3)c(=O)c(C(=O)Nc3cccnc3)c2C1 |
| 634 | Cc1ccc2c(CN3CCN(c4ccccn4)CC3)cc(=O)oc2c1 |
| 957 | O=C(c1ccc(Br)o1)N1CCC(c2cnn(-c3ccccc3)c2)CC1 |
| 807 | CC1CCCN(c2ncc(S(=O)(=O)c3ccc(C(C)C)cc3)c(N)n2)C1 (stereo not drawn) |
| 954 | CCCOC(=O)C1=C(C)NC2=C(C(=O)C(C(=O)OC)C(C)C2)C1c1ccccc1F (stereo not drawn) |

| RP-LC retention time [s] | SMILES |
| --- | --- |
| 1260 | CCc1ccc(CNC(=O)C2CCCN(c3nc4c(s3)c(C)nn4-c3ccc(C)cc3)C2)cc1 (stereo not drawn) |
| 575 | COc1ccc(C2=NC3(CCN(C(C)C)CC3)NC(c3cccc(OC)c3O)C2)cc1OC (stereo not drawn) |
| 1190 | CC(C)(C)c1ccc(C(=O)NC2(c3nc(-c4ccncc4)no3)CCCCC2)cc1 |
| 744 | CCOC(=O)c1ccccc1NC(=O)Cn1cnc2nc(-c3cccnc3)ncc2c1=O |
| 841 | Cn1ncc2c(N3CCSCC3)nc(C(=O)N3CCN(c4ccc(F)cc4)CC3)nc21 |
| 722 | O=C(CC1CCN(C(=O)c2ccc3nc(-c4ccccc4)oc3c2)CC1)NCC1CCCO1 (stereo not drawn) |
| 799 | Cc1ccc(NC(=O)N2CCC(c3nc(C(=O)N(C)C)c(C)o3)CC2)cc1Cl |
| 743 | COc1ccc2c(=O)c3c(=O)n(Cc4ccccc4)c(-c4cccs4)nc3oc2c1 |
| 849 | COc1cccc(-c2noc(C3CCCN3C(=O)Nc3cc(OC)ccc3OC)n2)c1 (stereo not drawn) |
| 836 | CCOC(=O)N1CCN(c2nc(F)c(F)c(S(=O)(=O)CCN3C(=O)CCC3=O)c2F)CC1 |
| 1070 | Cc1ccc2nc(-c3cccnc3)cc(C(=O)Nc3nc(-c4ccccc4)c(C)s3)c2c1 |
| 567 | O=C1NCCCCCN(C(=O)CN2CCCCCC2)[C@H]2CCC[C@@H]12 |
| 574 | CC(NC(=O)C(C)(C)C)C(=O)N1CCN(c2ccccn2)CC1 (stereo not drawn) |
| 618 | COc1cccc(CN2C[C@@H](CO)[C@H](c3nc(C4CC4)no3)C2)n1 |
| 703 | Cc1nc(C)c(C(=O)NC2CCN(c3ccc(=O)n(CCOc4ccccc4)n3)C2)s1 (stereo not drawn) |
| 1070 | CCn1c(=O)c2ccccc2n(Cc2nc(-c3ccc(C)cc3)no2)c1=O |
| 868 | O=C(NC1CC1)c1ccc(OCC2CCN(C(=O)Cc3ccc(Cl)cc3)CC2)cc1 |
| 694 | Cn1cc(-c2ccc3nnc(C(F)(F)c4ccc5ncccc5c4)n3n2)cn1 |
| 1050 | CCCS(=O)(=O)c1nc2ccc(NS(=O)(=O)c3ccc(C(C)C)cc3)cc2s1 |
| 576 | CCN1CCN(CCNC(=O)c2ccc(CS(=O)c3cccc(Cl)c3)o2)CC1 (stereo not drawn) |
| 577 | COc1ccc2[nH]c(=O)c(CCC(=O)NCc3nc4ccccc4n3C)cc2c1 |
| 665 | CCOc1ccc(-c2nnc3ccc(SC(C(C)=O)C(=O)N(C)C)nn23)cc1 (stereo not drawn) |

| RP-LC retention time [s] | SMILES |
| --- | --- |
| 1190 | CCc1noc(C2(NC(=O)c3ccc(C(C)(C)C)cc3)CCCCC2)n1 |
| 801 | O=C(Cc1ccc(NC(=O)CSCc2ccccc2)cc1)NCC(F)(F)F |
| 1100 | COc1ccc(-c2ncc3c(n2)CCN(S(=O)(=O)c2ccc(F)c(C)c2)C3)cc1 |
| 566 | COc1cccc(-c2csc(CN3CCNCC3)n2)c1 |
| 942 | Cc1noc(-c2cc(=O)n(CC(=O)Nc3cc(Cl)ccc3C)c3ccccc23)n1 |
| 623 | CCOc1ccc(S(=O)(=O)N(CC)CC(=O)N2CCNCC2)cc1 |
| 886 | Cc1cc(C)cc(-c2nnc(Cc3nc(-c4ccncc4)no3)o2)c1 |
| 806 | CCCCNC(=O)C1Cc2cc(S(=O)(=O)N3CCCCC3)ccc2N1C(C)=O (stereo not drawn) |
| 919 | COC(=O)c1ccc(NC(=O)N2CCCC2c2ccc(F)cc2)cc1 (stereo not drawn) |
| 655 | CSc1ccc(CNC(=O)c2cc(-c3ccncc3)cn2C)cc1 |
| 1060 | COc1ccc(-n2c(=O)c3sccc3n(Cc3nc(-c4ccc(Cl)c(F)c4)no3)c2=O)cc1 |
| 702 | CCN1CCN(C(=O)C(C)n2c(=O)c(C(F)(F)F)nc3cc(C)c(C)cc32)CC1 (stereo not drawn) |
| 1020 | Cc1nn(-c2ccc(Cl)cc2)c(C)c1S(=O)(=O)N1CCC(C(=O)Nc2ccccc2F)CC1 |
| 779 | O=C(CN1C(=O)NC2(CCCCC2)C1=O)Nc1cc(F)ccc1F |
| 866 | COc1ccc(-c2noc(Cn3ccn(-c4cccc(Cl)c4)c(=O)c3=O)n2)cc1 |
| 671 | O=C(O)c1nnn(-c2cccc(F)c2)c1-c1ccccn1 |
| 644 | CC(C)CN1C(=O)c2ccccc2C(C(=O)NCCCN2CCOCC2)C1c1cccs1 (stereo not drawn) |
| 932 | Cc1ccccc1NC(=O)N1CCCC1c1nc(-c2ccc(F)cc2F)no1 (stereo not drawn) |
| 983 | COC(=O)c1ccc2c(=O)n(-c3cc(OC)cc(OC)c3)c(N3CCSCC3)nc2c1 |
| 965 | Cc1sc(-c2nnc(C3CCC3)o2)cc1NC(=O)c1ccc(C#N)cc1 |
| 707 | COC(=O)c1nn(-c2ccc(C)cc2)c2c(=O)n(C)cnc12 |
| 720 | Cc1ccc(-c2cn3cccnc3n2)cc1NC(=O)CC1CCCCC1 |

| RP-LC retention time [s] | SMILES |
| --- | --- |
| 998 | O=c1c2ccccc2c(-c2nc(-c3cccnc3)no2)nn1-c1ccc(F)cc1 |
| 660 | COc1ccc(-c2nnc(-c3ccc(C)c(S(=O)(=O)NCc4cccnc4)c3)o2)cc1OC |
| 810 | CC(C)CCSc1nnc2c(S(=O)(=O)N3CCOCC3)cccn12 |
| 848 | Cc1cc(C)n(-c2ccc(C(=O)NCc3ccc(C)o3)cn2)n1 |
| 700 | CCn1cnc(S(=O)(=O)N2CCC(C(=O)NCc3ccc(F)cc3)CC2)c1 |
| 917 | Cc1nc(CCNC(=O)C2CCN(S(=O)(=O)c3ccc(CC(C)C)cc3)CC2)cs1 |
| 608 | CC(C)NC(=O)N1CCCC(c2cccc(C(=O)NCCN3CCCCC3)c2)C1 (stereo not drawn) |
| 653 | CCC(=O)N1CCc2cc(-c3ccc(C(=O)N4CCN(c5ccccn5)CC4)cc3)ccc21 |
| 1070 | COc1ccc(Cl)cc1NC(=O)N1CCCC(C)(C(=O)NCc2ccccc2C)C1 (stereo not drawn) |
| 810 | CCS(=O)(=O)c1ccc2c(c1)N(Cc1nc(-c3ccccc3OC)no1)C(=O)CO2 |
| 787 | O=C(COc1ccc(F)cc1)N1CCOc2ccc(N3CCOCC3)cc2C1 |
| 666 | O=C(Cn1cccc(S(=O)(=O)N2CCOCC2)c1=O)NCc1ccc(Cl)cc1 |
| 1260 | CC1CCCCC1NC(=O)c1sc2ncccc2c1-n1cccc1 (stereo not drawn) |
| 775 | Cc1noc(C)c1C1CCCN1C(=O)CCc1ccccc1 (stereo not drawn) |
| 635 | Nc1ccc2c(c1)S(=O)(=O)c1cc(N)ccc1-2 |
| 637 | CCOc1ccc(-c2cc3n(n2)CCCN(C(C)=O)C3)cc1 |
| 826 | CN1CCCCCCN(C(=O)c2cccs2)[C@H]2CCC[C@H]2C1=O |
| 641 | O=C(c1cnccn1)N1CCC2(CC1)N=C(c1ccccc1)NO2 |
| 912 | COCCN(CC(=O)N1CCc2sccc2C1COc1cccc(F)c1)C(=O)C(C)C (stereo not drawn) |
| 612 | COC(=O)c1ccccc1NC(=O)Cn1c(N2CCCC2)nc(C)cc1=O |

| SMILES | RP-LC retention time [s] |
| --- | --- |
| O=C1CCC2(O)[C@@H]3Cc4ccc(O)c5c4[C@]2(CCN3Cc2ccoc2)C1O5 (stereo partly drawn) | 609 |
| CC(NC(=O)c1cn(C)c2ncccc12)c1ccccn1 (stereo not drawn) | 552 |
